Read-outs that look alike come from different tables or passages of the source.
Assays:
[1] = Brain-to-blood drug concentration ratio of mice; format: in vivo; settings: mouse; for Kp at 1 h / Kp at 4 h: brain/plasma
Outline: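 Mice (9/group) dosed once IV or PO; orbital blood into K2-EDTA tubes for plasma, with brain homogenate, processed by acetonitrile precipitation (propafenone internal standard) and measured by LC-MS/MS. Ratio taken as brain tissue concentration over plasma concentration at the same time point.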

[2] = system: Salmonella typhimurium auxotroph strains TA98 and TA100; assay: Ames assay (mutagenicity test); format: cell-based; settings: TA98 and TA100, with or without S9
Protocol: The test strains adopted in the mutagenicity test were Salmonella typhimurium auxotroph strains TA98 and TA100. The test was performed using a 6-well plate in the presence or absence of the S9 metabolic activation system, with both a solvent control group (DMSO) and a positive control group set, with 2 replicate wells per treatment group. Compounds were set at 5 concentrations ranging from 62.5 μg/well to 1000.0 μg/well (equivalent to 312.5 μg/dish to 5000.0 μg/dish in the standard Ames assay). The plate was incubated at 37° C. for 48-72 h, and then bacterial toxicity was measured in each well and the number of mutant colonies in each well was counted. When the number of revertant colonies of the test compound groups is more than twice the number of spontaneous revertant colonies of the solvent control group in a reproducible and dose-dependent manner, the test substance is considered to have positive mutagenicity for the test strain.
In this test, dimethyl sulfoxide (DMSO) was used to dissolve the test substance and served as a negative (solvent) control. In the S9-free group (−S9), 2-nitrofluorene and sodium azide were used as positive controls for TA98 and TA100, respectively; in the S9 group (+S9), 2-aminofluorene was used as a positive control for TA98 and TA100.

[3] = brain, 2 mg/kg IV, read-out: Brain drug concentration
[4] = brain, 10 mg/kg PO, read-out: Brain drug concentration
[5] = plasma, 2 mg/kg IV, read-out: Blood drug concentration
[6] = plasma, 10 mg/kg PO, read-out: Blood drug concentration

| Compound | concentration at 1 h [1, 3] [ng/mL] | concentration at 4 h [1, 3] [ng/mL] | concentration at 1 h [1, 4] [ng/mL] | concentration at 4 h [1, 4] [ng/mL] | Kp at 1 h ([1]; 2 mg/kg IV) | Kp at 4 h ([1]; 2 mg/kg IV) | Kp at 1 h ([1]; 10 mg/kg PO) | Kp at 4 h ([1]; 10 mg/kg PO) | concentration at 1 h [1, 5] [ng/mL] | concentration at 4 h [1, 5] [ng/mL] | concentration at 1 h [1, 6] [ng/mL] | concentration at 4 h [1, 6] [ng/mL] | Pollutant mutagenicity test results [2] |
| --- | --- | --- | --- | --- | --- | --- | --- | --- | --- | --- | --- | --- | --- |
| CC(F)(F)C(=O)N[C@@H]1CCCC[C@H]1N1Cc2ccc(-c3nnc(C(F)F)o3)cc2S1(=O)=O [Compound 1] | 285 | 161 | 759 | 373 | 0.29 | 0.36 | 0.18 | 0.15 | 986 | 453 | 4270 | 2500 |  |
| O=C(N[C@@H]1CCCC[C@H]1N1Cc2ccc(-c3nnc(C(F)F)o3)cc2S1(=O)=O)C(F)F [Compound 2] | 268 | 149 | 882 | 435 | 0.26 | 0.25 | 0.18 | 0.15 | 1090 | 595 | 4990 | 2830 |  |
| O=C(N[C@H]1[C@H](N2Cc3ccc(-c4nnc(C(F)F)o4)cc3S2(=O)=O)CCCC1(F)F)C(F)F [Compound 61] |  |  |  |  |  |  |  |  |  |  |  |  | Negative |
